The values that follow come from patent publication EP3031808B1, “SALT OF IDELALISIB” (ratiopharm GmbH, priority 2014, dated 2016).

Like-named read-outs stand apart in the source and are kept apart here.

Data set [1] can be described thus: solubilities of salts of idelalisib in buffers and selected media.
For data set [2] the following is noted: cited from earlier work.
The mark [3] stands for this setting: water demin. (pH dep.), 15 min.
Where [4] appears, read: water demin. (pH dep.), 60 min.

As to `CC[C@H](Nc1ncnc2[nH]cnc12)c1nc2cccc(F)c2c(=O)n1-c1ccccc1` [Base, 5-fluoro-3-phenyl-2-[(1S)-1-(9H-purin-6-ylamino)propyl]quinazolin-4(3H)-one], the solubilities in data set [1] (0,01m HCl pH ∼2,2, 15 min.) amounted to 0.947; in data set [1] (0,01m HCl pH ∼2,2, 60 min.) it was 1.051; in data set [1] (20mM NaOAc pH 4.5, 15 min.) it was 0.092; in data set [1] (20mM NaOAc pH 4.5, 60 min.) it was 0.100; in data set [1] (50mM KH2PO4 pH 6.8, 15 min.), 0.086; in data set [1] (50mM KH2PO4 pH 6.8, 60 min.), 0.088. The solubilities was determined as 0.141 in data set [1] (0.1 % TPGS (FaSSIF), 15 min.); 0.107 in data set [1] (0.1 % TPGS (FaSSIF), 60 min.); 1.056 in data set [1] (2.0% TPGS (FeSSIF), 15 min.); 1.172 in data set [1] (2.0% TPGS (FeSSIF), 60 min.); 0.098 in data set [1] (setting [3]); 0.081 in data set [1] (setting [4]). Further, the solubility in water entry in data set [2] (water at pH 1.2) is reported as “soluble”; in data set [2] (water at pH 7) it was “practically insoluble”.

Maleate: the solubilities was 2.445 in data set [1] (0,01m HCl pH ∼2,2, 15 min.); 2.655 in data set [1] (0,01m HCl pH ∼2,2, 60 min.); 0.411 in data set [1] (20mM NaOAc pH 4.5, 15 min.); 0.475 in data set [1] (20mM NaOAc pH 4.5, 60 min.); 0.355 in data set [1] (50mM KH2PO4 pH 6.8, 15 min.); 0.393 in data set [1] (50mM KH2PO4 pH 6.8, 60 min.). Moreover, the solubilities stood at 0.662 in data set [1] (0.1 % TPGS (FaSSIF), 15 min.); 1.121 in data set [1] (0.1 % TPGS (FaSSIF), 60 min.); 6.798 in data set [1] (2.0% TPGS (FeSSIF), 15 min.); 6.984 in data set [1] (2.0% TPGS (FeSSIF), 60 min.); 1.934 in data set [1] (setting [3]); 2.095 in data set [1] (setting [4]). In addition, in data set [1] (general statement), the “solubility compared to the free base of idelalisib” value is reported as “increased”.
